Reference: US4415495A, “5,6;8,9-Tetrahydro-7H-dibenz(d,f)azonines” (Godecke Aktiengesellschaft, priority 1981, dated 1983)

Experiments:
[1] = system: Rats with calcium chloride induced arrhythmias; assay: Calcium chloride induced arrhythmias in narcotised rats (prophylactic i.v. administration); type: in vivo; conditions: for average period of arrhythmia: control 10.9 min.
Description: By means of the intravenous infusion of a calcium chloride solution, […] induced in narcotised rats which, after termination of the infusion, continue for a certain period of time (modification of the method described by Malinow et al., Arch. Int. Pharmacodyn, 102, 266/1955). This arrhythmic phase is shortened by the prophylactic administration of antiarrhythmic drugs. […] The results of the experiments with calcium chloride induced arrhythmias on rats are summarized in the following Table I. The average period of arrhythmia is calculated from experiments with at least 10 animals.

[2] = system: guinea pig left ventricle; assay: Refractory time of electrically stimulated guinea pig left ventricles (organ bath)
Experimental: The left ventricles of guinea pig hearts are electrically stimulated in an organ bath, the amplitude of contraction being recorded. By means of a second stimulus, the time is determined below which the heart muscle no longer reacts with a separately resolvable contraction. This time is defined as the refractory time.
The following Table II contains information concerning the maximum tested compound concentrations, as well as the average prolongation of the refractory time measured at this concentration in comparison with the initial value of, in each case, at least 6 experiments.

[3] = system: dogs with coronary ligature; assay: Coronary ligature on dogs (period of sinus rhythm from ECG); type: in vivo
Description: Using narcotised dogs, after thoracotomy, a coronary artery (side branch of the R. interventr. post. or of the R. circumflexus) is ligatured (see. A. S. Harris, Circulation, 1, 1318/1950). The heart rhythm disturbances which occur as a result thereof are, on the day following the operation, recorded on the awake animals and treated with the compounds according to the present invention by intragastral and intravenous administration. Procainamide is used as a positive standard. From the ECG, the time is determined in which, after administration of the test compound, a sinus rhythm can be recognized.
The compounds of Examples 1 (Table III), 4 (Table IV) and 10 (Table V) were tested on dogs with a coronary ligature. All the compounds were, in each case, tested on at least 5 animals.

rabbit eye = assay: Local anesthetic action on the rabbit eye (corneal reflex); type: in vivo, rabbits; conditions: for Period of Action: observation discontinued after 60 minutes
Experimental: The corneal reflex is induced in rabbits using a horse hair which bends with a pressure of about 250 mg (modification of the method described by M. von Frey, Beitrage zur Physiologie des Schmerzsinns, Vehr. d. Kgl. Sachs, Ges. d. Wiss. zu Leipzig, Math.-phys. Kl., 46, 185/1894; Untersuchungen uber die Sinnesfunktionen der menschlichen Haut, Leipzig, 1896). After instillation of local anesthetics into the conjunctival sac of the eye, the number of impacts with the horse hair which result in closure of the eyelid is increased. At intervals of 4 minutes, in each case a maximum of 100 successive impacts are carried out and such an action is taken as being 100%. The period of investigation is at most 60 minutes. The action of the compounds according to the present invention is compared with that of tetracaine and procainamide.
The following Table VII contains the results of the experiments on the rabbit eye. There are also given, in addition to the concentrations of the test solutions which were instilled into the conjunctival sac, the actions of the compounds in % (see description of the method), as well as their period of action. In each case, the observations were discontinued after 60 minutes.

in vivo = conditions: mouse, po
Experimental: The compounds according to the present invention are administered intragastrally to male mice (NMRI) with a body weight of from 20 to 25 g. Each dosage group consists of 4 animals. The LD50 values are determined after having observed the animals for 7 days.

[4] = Oryctolagus cuniculus, topical, concentration 0.5 %
[5] = Oryctolagus cuniculus, topical, concentration 2.0 %
[6] = Oryctolagus cuniculus, topical, concentration 1.0 %
[7] = Oryctolagus cuniculus, topical, concentration 0.1 %

CCN(CC)CCNC(=O)c1ccc(N)cc1 [procainamide, reference compound]
average period of arrhythmia ([1]; 10 mg/kg I.V.): 7.3 min | average prolongation of the refractory time ([2]; 6.4 × 10^-5 g/ml in the bath): 7 ms | average period of eurhythmia ([3]; 10 mg/kg i.v.): 19 min | inhibition in vivo at 0.5 % (rabbit eye; [4]): 1% | inhibition in vivo at 2 % (rabbit eye; [5]): 1% | Period of Action (rabbit eye; concentration 0.5 %): 0 min | Period of Action (rabbit eye; concentration 2.0 %): 0 min | local anesthetic activity (in words) (rabbit eye; versus procainamide and tetracaine): inactive | LD50 at 168 h (in vivo): 1200 mg/kg

COc1ccc2c(c1)-c1c(ccc(OC)c1O)CC(CCc1ccccc1)N(C)CC2 (single isomer, unassigned; (+)) [Example 10, (+)-2,12-Dimethoxy-1-hydroxy-7-methyl-6-phenethyl-5,6;8,9-tetrahydro-7H-dibenz(d,f)azonine]
average period of arrhythmia ([1]; 2.5 mg/kg I.V.): 5.4 min | average prolongation of the refractory time ([2]; 4.0 × 10^-6 g/ml in the bath): 44 ms | average period of eurhythmia ([3]; 2 mg/kg i.v.): 40 min | average period of eurhythmia ([3]; 5 mg/kg i.g.): 105 min | average period of eurhythmia ([3]; 10 mg/kg i.g.): 169 min | average period of eurhythmia ([3]; 40 mg/kg i.g.): 185 min | inhibition in vivo at 1 % (rabbit eye; [6]): 100% | Period of Action (rabbit eye; concentration 1.0 %): > 60 min | LD50 at 168 h (in vivo): 600 mg/kg

COc1ccc(CCN(C)CCCC(C#N)(c2ccc(OC)c(OC)c2)C(C)C)cc1OC (stereo not drawn) [Verapamil, verapamil, reference compound]
average prolongation of the refractory time ([2]; 1.6 × 10^-5 g/ml in the bath): 16 ms

COc1ccc2c(c1)-c1c(ccc(OC)c1OC(C)=O)CC(Cc1ccccc1)N(C)CC2 (single isomer, unassigned; (-)) [Example 8, (-)-1-Acetoxy-6-benzyl-2,12-dimethoxy-7-methyl-5,6;8,9-tetrahydro-7H-dibenz(d,f)azonine]
average period of arrhythmia ([1]; 4 mg/kg I.V.): 5.7 min | average prolongation of the refractory time ([2]; 4.0 × 10^-6 g/ml in the bath): 21 ms | inhibition in vivo at 0.5 % (rabbit eye; [4]): 74% | inhibition in vivo at 2 % (rabbit eye; [5]): 100% | Period of Action (rabbit eye; concentration 0.5 %): > 60 min | Period of Action (rabbit eye; concentration 2.0 %): > 60 min | LD50 at 168 h (in vivo): 1200 mg/kg

CC[C@H]1[C@@H]2C[C@H]3[C@@H]4N(C)c5ccccc5[C@]45C[C@@H]([C@H]2[C@H]5O)N3[C@@H]1O [Ajmaline, ajmaline, reference compound]
average prolongation of the refractory time ([2]; 1.6 × 10^-5 g/ml in the bath): 16 ms

COc1cccc(CC2Cc3ccc(OC)c(OC)c3-c3cc(OC)ccc3CCN2C)c1 (single isomer, unassigned; (-)) [Example 6, (-)-6-(3'-Methoxybenzyl)-7-methyl-5,6;8,9-tetrahydro-1,2,12-trimethoxy-7H-dibenz(d,f)azonine]
average period of arrhythmia ([1]; 4 mg/kg I.V.): 4.6 min | inhibition in vivo at 1 % (rabbit eye; [6]): 79% | inhibition in vivo at 2 % (rabbit eye; [5]): 100% | Period of Action (rabbit eye; concentration 1.0 %): > 60 min | Period of Action (rabbit eye; concentration 2.0 %): > 60 min | LD50 at 168 h (in vivo): ~300 mg/kg

COc1ccc2c(c1)-c1c(ccc(OC)c1OC)CC(Cc1ccccc1)N(C)CC2 (racemic) [Example 5, (±)-6-Benzyl-7-methyl-5,6;8,9-tetrahydro-1,2,12-trimethoxy-7H-dibenz(d,f)azonine]
average period of arrhythmia ([1]; 5 mg/kg I.V.): 4.1 min | average prolongation of the refractory time ([2]; 4.0 × 10^-6 g/ml in the bath): 25 ms | inhibition in vivo at 1 % (rabbit eye; [6]): 100% | Period of Action (rabbit eye; concentration 1.0 %): > 60 min | LD50 at 168 h (in vivo): ~1000 mg/kg

COc1cccc(CC2Cc3ccc(OC)c(O)c3-c3cc(OC)ccc3CCN2C)c1 (single isomer, unassigned; (-)) [Example 2, (-)-6-(3'-Methoxybenzyl)-2,12-dimethoxy-1-hydroxy-7-methyl-5,6;8,9-tetrahydro-7H-dibenz(d,f)azonine]
average period of arrhythmia ([1]; 10 mg/kg I.V.): 4.9 min | average prolongation of the refractory time ([2]; 8.0 × 10^-6 g/ml in the bath): 46 ms | inhibition in vivo at 0.1 % (rabbit eye; [7]): 78% | inhibition in vivo at 0.5 % (rabbit eye; [4]): 100% | inhibition in vivo at 1 % (rabbit eye; [6]): 100% | Period of Action (rabbit eye; concentration 0.1 %): 46 min | Period of Action (rabbit eye; concentration 0.5 %): about 52 Min. | Period of Action (rabbit eye; concentration 1.0 %): > 60 min | LD50 at 168 h (in vivo): 1000 mg/kg

CCCCNc1ccc(C(=O)OCCN(C)C)cc1 [tetracaine, reference compound]
inhibition in vivo at 0.1 % (rabbit eye; [7]): 100% | Period of Action (rabbit eye; concentration 0.1 %): about 44 Min. | duration of maximum activity strength (rabbit eye; concentration not given there): 44 min | maximum activity strength (rabbit eye; concentration not given there): 100%

COc1ccc2c(c1)-c1c(ccc(OC)c1O)CC(Cc1cccc(C)c1)N(C)CC2 (single isomer, unassigned; (-)) [Example 12, (-)-6-(3'-Methylbenzyl)-2,12-dimethoxy-7-methyl-1-hydroxy-5,6;8,9-tetrahydro-7H-dibenz(d,f)azonine]
average period of arrhythmia ([1]; 5 mg/kg I.V.): 6.4 min | average prolongation of the refractory time ([2]; 6.4 × 10^-5 g/ml in the bath): 51 ms | inhibition in vivo at 0.1 % (rabbit eye; [7]): 68% | inhibition in vivo at 0.25 % (rabbit eye; Oryctolagus cuniculus, topical, concentration 0.25 %): 100% | Period of Action (rabbit eye; concentration 0.1 %): about 56 Min. | Period of Action (rabbit eye; concentration 0.25 %): > 60 min | LD50 at 168 h (in vivo): 1200 mg/kg

O=C1NC(=O)C(c2ccccc2)(c2ccccc2)N1 [phenytoin, reference compound]
average period of arrhythmia ([1]; 20 mg/kg I.V.): 16.5 min | average prolongation of the refractory time ([2]; 1.6 × 10^-5 g/ml in the bath): -6 ms

COc1cccc(CC2Cc3ccc(OC)c(OC(C)=O)c3-c3cc(OC)ccc3CCN2C)c1 (single isomer, unassigned; (-)) [Example 7, (-)-1-Acetoxy-6-(3'-methoxybenzyl)-7-methyl-5,6;8,9-tetrahydro-2,12-dimethoxy-7H-dibenz(d,f)azonine]
average period of arrhythmia ([1]; 4 mg/kg I.V.): 4.1 min | average prolongation of the refractory time ([2]; 4.0 × 10^-6 g/ml in the bath): 18 ms | inhibition in vivo at 0.5 % (rabbit eye; [4]): 63% | inhibition in vivo at 1 % (rabbit eye; [6]): 100% | Period of Action (rabbit eye; concentration 0.5 %): > 60 min | Period of Action (rabbit eye; concentration 1.0 %): > 60 min | LD50 at 168 h (in vivo): 900 mg/kg

COc1ccc2c(c1)-c1c(ccc(OC)c1O)CC(Cc1c(Cl)cccc1Cl)N(C)CC2 (single isomer, unassigned; (-)) [Example 11, (-)-6-(2',6'-Dichlorobenzyl)-2,12-dimethoxy-7-methyl-1-hydroxy-5,6;8,9-tetrahydro-7H-dibenz(d,f)azonine]
average period of arrhythmia ([1]; 8 mg/kg I.V.): 7.7 min | antiarrhythmic action / period of arrhythmia (in words) ([1]; in comparison with control animals or procainamide): just as good | average prolongation of the refractory time ([2]; 3.2 × 10^-5 g/ml in the bath): 29 ms | inhibition in vivo at 1 % (rabbit eye; [6]): 55% | inhibition in vivo at 2 % (rabbit eye; [5]): 100% | Period of Action (rabbit eye; concentration 1.0 %): > 60 min | Period of Action (rabbit eye; concentration 2.0 %): > 60 min | LD50 at 168 h (in vivo): > 1600 mg/kg

COc1ccc2c(c1)-c1c(ccc(OC)c1O)CC(Cc1ccccc1)NCC2 (stereo not drawn) [Example 9, 6-Benzyl-2,12-dimethoxy-1-hydroxy-5,6;8,9-tetrahydro-7H-dibenz(d,f)azonine]
average period of arrhythmia ([1]; 5 mg/kg I.V.): 6.8 min | average prolongation of the refractory time ([2]; 1.6 × 10^-5 g/ml in the bath): 27 ms

COc1ccc2c(c1)-c1c(ccc(OC)c1O)CC(Cc1ccccc1Cl)N(C)CC2 (single isomer, unassigned; (-)) [Example 4, (-)-6-(2'-Chlorobenzyl)-2,12-dimethoxy-hydroxy-7-methyl-5,6;8,9-tetrahydro-7H-dibenz(d,f)azonine]
average period of arrhythmia ([1]; 5 mg/kg I.V.): 4.6 min | average period of arrhythmia ([1]; 10 mg/kg I.V.): 2.3 min | average prolongation of the refractory time ([2]; 1.6 × 10^-5 g/ml in the bath): 21 ms | average period of eurhythmia ([3]; 4 mg/kg i.v.): 68 min | average period of eurhythmia ([3]; 40 mg/kg i.g.): 91 min | average period of eurhythmia ([3]; 60 mg/kg i.g.): 103 min | average period of eurhythmia ([3]; 80 mg/kg i.g.): 139 min | LD50 at 168 h (in vivo): 1200 mg/kg

COc1ccc2c(c1)-c1c(ccc(OC)c1O)CC(Cc1ccc(F)cc1)N(C)CC2 (single isomer, unassigned; (-)) [Example 3, (-)-6-(4'-Fluorobenzyl)-2,12-dimethoxy-1-hydroxy-7-methyl-5,6;8,9-tetrahydro-7H-dibenz(d,f)azonine]
average period of arrhythmia ([1]; 10 mg/kg I.V.): 5.4 min | average prolongation of the refractory time ([2]; 1.6 × 10^-5 g/ml in the bath): 29 ms | inhibition in vivo at 0.5 % (rabbit eye; [4]): 100% | Period of Action (rabbit eye; concentration 0.5 %): > 60 min | LD50 at 168 h (in vivo): 600 mg/kg
